Test results taken from the supplement of paper PMC10307832.

Assays:
Test in all cases: relative viability (nuclei count vs DMSO), 5 days (fraction); higher = more cells survive
201T = test system: 201T
Procedure, shortened: (§1)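 One day after seeding in 1536-well plates, lung cancer cell lines were dosed by pin tool. Dosing was either single-drug or a fixed anchor-drug dose plus five library-drug doses (not always all listed) in √10 steps. After 5 days, nuclei were stained in one fix-and-stain step and counted on 4× images, and relative viability is the nuclei count of treated wells over that of vehicle wells, given as the median of duplicate plates.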

BEN = test system: BEN
Procedure, shortened: as §1

EMC-BAC-2 = test system: EMC-BAC-2
Procedure, shortened: as §1

HARA = test system: HARA
Procedure, shortened: as §1

HCC-44 = test system: HCC-44
Procedure, shortened: as §1

LCLC-103H = test system: LCLC-103H
Procedure, shortened: as §1

LOU-NH91 = test system: LOU-NH91
Procedure, shortened: as §1

NCI-H1666 = test system: NCI-H1666
Procedure, shortened: as §1

NCI-H1993 = test system: NCI-H1993
Procedure, shortened: as §1

NCI-H2009 = test system: NCI-H2009
Procedure, shortened: as §1

NCI-H2023 = test system: NCI-H2023
Procedure, shortened: as §1

NCI-H2087 = test system: NCI-H2087
Procedure, shortened: as §1

NCI-H2126 = test system: NCI-H2126
Procedure, shortened: as §1

NCI-H2347 = test system: NCI-H2347
Procedure, shortened: as §1

NCI-H23 = test system: NCI-H23
Procedure, shortened: as §1

NCI-H3122 = test system: NCI-H3122
Procedure, shortened: as §1

NCI-H441 = test system: NCI-H441
Procedure, shortened: as §1

NCI-H596 = test system: NCI-H596
Procedure, shortened: as §1

NCI-H647 = test system: NCI-H647
Procedure, shortened: as §1

NCI-H650 = test system: NCI-H650
Procedure, shortened: as §1

NCI-H727 = test system: NCI-H727
Procedure, shortened: as §1

NCI-H838 = test system: NCI-H838
Procedure, shortened: as §1

**Q.** O=C(O)c1ccc(-c2c[nH]c3ncc(-c4ccccc4)cc23)cc1C1CCCC1 + C[C@@H](Oc1cc(-c2cnn(C3CCNCC3)c2)cnc1N)c1c(Cl)ccc(F)c1Cl [Crizotinib] (partner 1 µM) was tested. Which relative viability (201T; first compound 0.04 µM) did it give?
**A.** 1.06

**Q.** And the relative viability (201T; first compound 0.1265 µM)?
**A.** 1.04

**Q.** What about the relative viability (201T; first compound 0.4 µM) of the same compound?
**A.** 0.941

**Q.** What about the relative viability (201T; first compound 1.265 µM) of the same compound?
**A.** 0.979

**Q.** And the relative viability (BEN; first compound 0.04 µM)?
**A.** 0.89

**Q.** What about the relative viability (BEN; first compound 0.1265 µM) of the same compound?
**A.** 0.996

**Q.** What about the relative viability (BEN; first compound 0.4 µM) of the same compound?
**A.** 0.885

**Q.** What about the relative viability (BEN; first compound 1.265 µM) of the same compound?
**A.** 0.774

**Q.** What about the relative viability (EMC-BAC-2; first compound 0.04 µM) of the same compound?
**A.** 0.76

**Q.** What about the relative viability (EMC-BAC-2; first compound 0.1265 µM) of the same compound?
**A.** 0.806

**Q.** What about the relative viability (EMC-BAC-2; first compound 0.4 µM) of the same compound?
**A.** 0.671

**Q.** And the relative viability (EMC-BAC-2; first compound 1.265 µM)?
**A.** 0.672

**Q.** What about the relative viability (HARA; first compound 0.04 µM) of the same compound?
**A.** 0.985

**Q.** And the relative viability (HARA; first compound 0.1265 µM)?
**A.** 1.04

**Q.** And the relative viability (HARA; first compound 0.4 µM)?
**A.** 1.02

**Q.** And the relative viability (HARA; first compound 1.265 µM)?
**A.** 0.763

**Q.** What about the relative viability (HCC-44; first compound 0.04 µM) of the same compound?
**A.** 0.764

**Q.** What about the relative viability (HCC-44; first compound 0.1265 µM) of the same compound?
**A.** 0.823

**Q.** And the relative viability (HCC-44; first compound 0.4 µM)?
**A.** 0.812

**Q.** And the relative viability (HCC-44; first compound 1.265 µM)?
**A.** 0.577

**Q.** And the relative viability (LCLC-103H; first compound 0.04 µM)?
**A.** 0.997

**Q.** And the relative viability (LCLC-103H; first compound 0.1265 µM)?
**A.** 1.05

**Q.** And the relative viability (LCLC-103H; first compound 0.4 µM)?
**A.** 1.03

**Q.** And the relative viability (LCLC-103H; first compound 1.265 µM)?
**A.** 1.04

**Q.** And the relative viability (LOU-NH91; first compound 0.04 µM)?
**A.** 0.725

**Q.** And the relative viability (LOU-NH91; first compound 0.1265 µM)?
**A.** 0.771

**Q.** And the relative viability (LOU-NH91; first compound 0.4 µM)?
**A.** 0.702

**Q.** What about the relative viability (LOU-NH91; first compound 1.265 µM) of the same compound?
**A.** 0.782

**Q.** And the relative viability (NCI-H1666; first compound 0.04 µM)?
**A.** 1.03

**Q.** And the relative viability (NCI-H1666; first compound 0.1265 µM)?
**A.** 0.991

**Q.** And the relative viability (NCI-H1666; first compound 0.4 µM)?
**A.** 0.812

**Q.** And the relative viability (NCI-H1666; first compound 1.265 µM)?
**A.** 0.365

**Q.** And the relative viability (NCI-H1993; first compound 0.04 µM)?
**A.** 0.805

**Q.** What about the relative viability (NCI-H1993; first compound 0.4 µM) of the same compound?
**A.** 0.805

**Q.** What about the relative viability (NCI-H1993; first compound 1.265 µM) of the same compound?
**A.** 0.812

**Q.** What about the relative viability (NCI-H2009; first compound 0.04 µM) of the same compound?
**A.** 0.994

**Q.** And the relative viability (NCI-H2009; first compound 0.1265 µM)?
**A.** 1.05

**Q.** And the relative viability (NCI-H2009; first compound 0.4 µM)?
**A.** 0.931

**Q.** What about the relative viability (NCI-H2009; first compound 1.265 µM) of the same compound?
**A.** 0.666

**Q.** What about the relative viability (NCI-H2023; first compound 0.04 µM) of the same compound?
**A.** 0.639

**Q.** What about the relative viability (NCI-H2023; first compound 0.1265 µM) of the same compound?
**A.** 0.669

**Q.** What about the relative viability (NCI-H2023; first compound 0.4 µM) of the same compound?
**A.** 0.572

**Q.** What about the relative viability (NCI-H2023; first compound 1.265 µM) of the same compound?
**A.** 0.603

**Q.** What about the relative viability (NCI-H2087; first compound 0.04 µM) of the same compound?
**A.** 0.853

**Q.** And the relative viability (NCI-H2087; first compound 0.1265 µM)?
**A.** 0.75

**Q.** What about the relative viability (NCI-H2087; first compound 0.4 µM) of the same compound?
**A.** 0.833

**Q.** And the relative viability (NCI-H2087; first compound 1.265 µM)?
**A.** 0.723

**Q.** What about the relative viability (NCI-H2126; first compound 0.04 µM) of the same compound?
**A.** 1.04

**Q.** And the relative viability (NCI-H2126; first compound 0.1265 µM)?
**A.** 1.03

**Q.** And the relative viability (NCI-H2126; first compound 0.4 µM)?
**A.** 0.995

**Q.** And the relative viability (NCI-H2126; first compound 1.265 µM)?
**A.** 0.824

**Q.** What about the relative viability (NCI-H2347; first compound 0.04 µM) of the same compound?
**A.** 0.621

**Q.** And the relative viability (NCI-H2347; first compound 0.1265 µM)?
**A.** 0.707

**Q.** What about the relative viability (NCI-H2347; first compound 0.4 µM) of the same compound?
**A.** 0.642

**Q.** And the relative viability (NCI-H2347; first compound 1.265 µM)?
**A.** 0.568

**Q.** What about the relative viability (NCI-H23; first compound 0.04 µM) of the same compound?
**A.** 0.689

**Q.** And the relative viability (NCI-H23; first compound 0.1265 µM)?
**A.** 0.598

**Q.** And the relative viability (NCI-H23; first compound 0.4 µM)?
**A.** 0.482

**Q.** And the relative viability (NCI-H23; first compound 1.265 µM)?
**A.** 0.484

**Q.** And the relative viability (NCI-H3122; first compound 0.04 µM)?
**A.** 0.261

**Q.** And the relative viability (NCI-H3122; first compound 0.1265 µM)?
**A.** 0.245

**Q.** What about the relative viability (NCI-H3122; first compound 0.4 µM) of the same compound?
**A.** 0.272

**Q.** What about the relative viability (NCI-H3122; first compound 1.265 µM) of the same compound?
**A.** 0.319

**Q.** What about the relative viability (NCI-H441; first compound 0.04 µM) of the same compound?
**A.** 0.601

**Q.** What about the relative viability (NCI-H441; first compound 0.1265 µM) of the same compound?
**A.** 0.907

**Q.** And the relative viability (NCI-H441; first compound 0.4 µM)?
**A.** 0.689

**Q.** What about the relative viability (NCI-H441; first compound 1.265 µM) of the same compound?
**A.** 0.525

**Q.** And the relative viability (NCI-H596; first compound 0.04 µM)?
**A.** 1

**Q.** What about the relative viability (NCI-H596; first compound 0.1265 µM) of the same compound?
**A.** 1.09

**Q.** And the relative viability (NCI-H596; first compound 0.4 µM)?
**A.** 0.909

**Q.** What about the relative viability (NCI-H596; first compound 1.265 µM) of the same compound?
**A.** 1

**Q.** What about the relative viability (NCI-H647; first compound 0.04 µM) of the same compound?
**A.** 1.01

**Q.** What about the relative viability (NCI-H647; first compound 0.1265 µM) of the same compound?
**A.** 1.08

**Q.** And the relative viability (NCI-H647; first compound 0.4 µM)?
**A.** 0.987

**Q.** And the relative viability (NCI-H647; first compound 1.265 µM)?
**A.** 0.77

**Q.** What about the relative viability (NCI-H650; first compound 0.04 µM) of the same compound?
**A.** 0.762

**Q.** What about the relative viability (NCI-H650; first compound 0.1265 µM) of the same compound?
**A.** 0.844

**Q.** What about the relative viability (NCI-H650; first compound 0.4 µM) of the same compound?
**A.** 0.561

**Q.** And the relative viability (NCI-H650; first compound 1.265 µM)?
**A.** 0.465

**Q.** And the relative viability (NCI-H727; first compound 0.04 µM)?
**A.** 0.971

**Q.** What about the relative viability (NCI-H727; first compound 0.1265 µM) of the same compound?
**A.** 0.894

**Q.** What about the relative viability (NCI-H727; first compound 0.4 µM) of the same compound?
**A.** 0.738

**Q.** And the relative viability (NCI-H727; first compound 1.265 µM)?
**A.** 0.805

**Q.** And the relative viability (NCI-H838; first compound 0.04 µM)?
**A.** 0.794

**Q.** And the relative viability (NCI-H838; first compound 0.1265 µM)?
**A.** 0.952

**Q.** What about the relative viability (NCI-H838; first compound 0.4 µM) of the same compound?
**A.** 0.848

**Q.** What about the relative viability (NCI-H838; first compound 1.265 µM) of the same compound?
**A.** 0.88
